Experiments:
[1] = tested on: MALME-3M; assay: NCI 60 cell one-dose screening (SRB); format: cell-based; details: Homo sapiens, Melanoma, single dose 10 µM, 48 h, read-out: Percentage of cellular growth inhibition
How it was run: (§1)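 Single dose 10 µM, 48 h exposure; RPMI 1640/5% FBS/2 mM Gln, 37 °C. TCA fix (10% adherent, 16% suspension), 0.4% SRB, A515. Value = 100 − growth % relative to untreated control.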

[2] = tested on: OVCAR-5; assay: NCI 60 cell one-dose screening (SRB); format: cell-based; details: Homo sapiens; OVCAR-5, Ovarian Cancer; single dose 10 µM, 48 h; read-out: Percentage of cellular growth inhibition
How it was run: as §1

[3] = tested on: SR; assay: NCI 60 cell one-dose screening (SRB); format: cell-based; details: Homo sapiens, Leukemia, single dose 10 µM, 48 h, read-out: Percentage of cellular growth inhibition
How it was run: as §1

[4] = tested on: HL-60(TB); assay: NCI 60 cell one-dose screening (SRB); format: cell-based; details: Homo sapiens, Leukemia, single dose 10 µM, 48 h, read-out: Percentage of cellular growth inhibition
How it was run: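 Absorbance of bound sulphorhodamine B at 515 nm served as the read-out after 48 h of treatment with 10 µM compound. Growth % used a time-zero plate (Tz) fixed at drug addition and the untreated control; inhibition % equals 100 minus that growth.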

[5] = tested on: T-47D; assay: NCI 60 cell one-dose screening (SRB); format: cell-based; details: Homo sapiens, T47D, 48 h, Breast Cancer, single dose 10 µM, read-out: Percentage of cellular growth inhibition
How it was run: as §1

[6] = tested on: NCI-H460; assay: NCI 60 cell one-dose screening (SRB); format: cell-based; details: Homo sapiens; NCI-H460, Non-Small Cell Lung Cancer; single dose 10 µM, 48 h; read-out: Percentage of cellular growth inhibition
How it was run: as §1

[7] = tested on: LOX IMVI; assay: NCI 60 cell one-dose screening (SRB); format: cell-based; details: Homo sapiens, Melanoma, single dose 10 µM, 48 h, read-out: Percentage of cellular growth inhibition
How it was run: as §1

[8] = tested on: NCI-H23; assay: NCI 60 cell one-dose screening (SRB); format: cell-based; details: Homo sapiens; NCI-H23, Non-Small Cell Lung Cancer; single dose 10 µM, 48 h; read-out: Percentage of cellular growth inhibition
How it was run: as §1

[9] = tested on: NCI-H322M; assay: NCI 60 cell one-dose screening (SRB); format: cell-based; details: Homo sapiens, Non-Small Cell Lung Cancer, single dose 10 µM, 48 h, read-out: Percentage of cellular growth inhibition
How it was run: as §1

[10] = tested on: PC-3; assay: NCI 60 cell one-dose screening (SRB); format: cell-based; details: Homo sapiens; PC-3, Prostate Cancer; single dose 10 µM, 48 h; read-out: Percentage of cellular growth inhibition
How it was run: as §1

[11] = tested on: OVCAR-8; assay: NCI 60 cell one-dose screening (SRB); format: cell-based; details: Homo sapiens; OVCAR-8, Ovarian Cancer; single dose 10 µM, 48 h; read-out: Percentage of cellular growth inhibition
How it was run: as §1

[12] = tested on: CCRF-CEM; assay: NCI 60 cell one-dose screening (SRB); format: cell-based; details: Homo sapiens, Leukemia, single dose 10 µM, 48 h, read-out: Percentage of cellular growth inhibition
How it was run: as §1

[13] = tested on: CAKI-1; assay: NCI 60 cell one-dose screening (SRB); format: cell-based; details: Homo sapiens; CAKI-1, Renal Cancer; single dose 10 µM, 48 h; read-out: Percentage of cellular growth inhibition
How it was run: as §1

[14] = tested on: BT-549; assay: NCI 60 cell one-dose screening (SRB); format: cell-based; details: Homo sapiens; BT-549, Breast Cancer; single dose 10 µM, 48 h; read-out: Percentage of cellular growth inhibition
How it was run: as §1

[15] = tested on: SF-268; assay: NCI 60 cell one-dose screening (SRB); format: cell-based; details: Homo sapiens; SF-268, CNS Cancer; single dose 10 µM, 48 h; read-out: Percentage of cellular growth inhibition
How it was run: as §1

[16] = tested on: HOP-62; assay: NCI 60 cell one-dose screening (SRB); format: cell-based; details: Homo sapiens; HOP-62, Non-Small Cell Lung Cancer; single dose 10 µM, 48 h; read-out: Percentage of cellular growth inhibition
How it was run: as §1

[17] = tested on: OVCAR-4; assay: NCI 60 cell one-dose screening (SRB); format: cell-based; details: Homo sapiens; OVCAR-4, Ovarian Cancer; single dose 10 µM, 48 h; read-out: Percentage of cellular growth inhibition
How it was run: as §1

[18] = tested on: Breast T47D cancer cell line; assay: In vitro inhibition concentration of breast T47D cancer cell line; format: cell-based; details: Homo sapiens
Method: Cells were seeded and treated with a range of inhibitors concentration 39–10,000 nM after 24 h relative to DMSO. […]

[19] = tested on: OVCAR-3; assay: NCI 60 cell one-dose screening (SRB); format: cell-based; details: Homo sapiens; OVCAR-3, Ovarian Cancer; single dose 10 µM, 48 h; read-out: Percentage of cellular growth inhibition
How it was run: as §1

[20] = tested on: SK-MEL-2; assay: NCI 60 cell one-dose screening (SRB); format: cell-based; details: Homo sapiens; SK-MEL-2, Melanoma; single dose 10 µM, 48 h; read-out: Percentage of cellular growth inhibition
How it was run: as §1

SMILES | inhibition at 10 µM [1] [%] | inhibition at 10 µM [2] [%] | inhibition at 10 µM [3] [%] | inhibition at 10 µM [4] [%] | inhibition at 10 µM [5] [%] | inhibition at 10 µM [6] [%] | inhibition at 10 µM [7] [%] | inhibition at 10 µM [8] [%] | inhibition at 10 µM [9] [%] | inhibition at 10 µM [10] [%] | inhibition at 10 µM [11] [%] | inhibition at 10 µM [12] [%] | inhibition at 10 µM [13] [%] | inhibition at 10 µM [14] [%] | inhibition at 10 µM [15] [%] | inhibition at 10 µM [16] [%] | inhibition at 10 µM [17] [%] | melting point [°C] | IC50 ([18]; 48 h) [µM] | IC50 ([18]; 96 h) [µM] | also measured
CCOc1ccc(/N=N/c2sc(Nc3cccc(Nc4nc(C)c(/N=N/c5ccc(OCC)cc5)s4)c3)nc2C)cc1 [5b, N^1,N^3-bis(5-((4-ethoxyphenyl)diazinyl)-4-methylthiazol-2-yl)benzene-1,3-diamine] | -6.9 | 9 | -15.5 | 8.9 | 17.1 | -6.8 | 2.6 | 10.6 | 11.4 | 6.2 | -4 | -13.9 | 8.3 | -3.7 | 4.5 | -1.3 | 0.1 | 116 to 118 | – | – | –
Clc1ccc(-c2csc(Nc3cccc(Nc4nc(-c5ccc(Cl)cc5)cs4)c3)n2)cc1 [6c, N^1,N^3-bis(4–(4-chlorophenyl)thiazol-2-yl)benzene-1,3-diamine] | -22.4 | 9.6 | 3.9 | 14.6 | 18.3 | -2.1 | 7.3 | 10.1 | 5 | 22.2 | 7.7 | 10.4 | 43 | -6.1 | 22.6 | 17.7 | 8.4 | 100 to 101 | 27.3 | 1.85 | –
CC(=O)c1sc(Nc2cccc(Nc3nc(C)c(C(C)=O)s3)c2)nc1C [3b, 1,1’-(2,2’-(1,3-Phenylenebis(azanediyl))bis(4-methylthiazole-5,2-diyl))diethanone] | 30.2 | 16.5 | 61.5 | 65.8 | – | 54.4 | 51.9 | 36.8 | 38.3 | 48.7 | 56.6 | 38.8 | 71.9 | 53.8 | 28.9 | 22.2 | 48.5 | – | 5.77 | 1.46 | –
S=C(Nc1ccccc1)Nc1cccc(NC(=S)Nc2ccccc2)c1 [compound 7, 1,1′-(1,3-phenylene)bis(3-phenylthiourea)] | 10.8 | -4.9 | – | -2.5 | 6.3 | -16.5 | – | -5.7 | 2.6 | -24 | 4 | 56.8 | 10.9 | -13.2 | 3.3 | -18.9 | -6.6 | – | – | – | inhibition at 10 µM [19]: -6.1%; inhibition at 10 µM [20]: -35.3%
CCOC(=O)c1sc(Nc2cccc(Nc3nc(C)c(C(=O)OCC)s3)c2)nc1C [3c, Diethyl 2,2’-(1,3-phenylenebis(azanediyl))bis(4-methylthiazole-5-carboxylate)] | 15.2 | 8 | 36.1 | 22.7 | 63.9 | 23.5 | 25.5 | 41.6 | 3.8 | 22.9 | 17.3 | 11 | 21.9 | 26.3 | 14.8 | 1.2 | 33.2 | 107 to 108 | – | – | –
NC(=S)Nc1cccc(NC(N)=S)c1 [compound 2, 1,1′-(1,3-phenylene)bis(thiourea)] | 15.7 | -3.6 | – | 0.9 | 13.2 | -9.7 | – | 1.5 | 11.7 | -2.4 | 6 | 3.6 | 20.3 | -14.6 | 9.1 | -19.5 | 5.4 | – | – | – | inhibition at 10 µM [19]: 11.5%; inhibition at 10 µM [20]: -11.7%
Cc1csc(Nc2cccc(Nc3nc(C)cs3)c2)n1 [3a, N^1,N^3-bis(4-methylthiazol-2-yl)benzene-1,3-diamine] | -18.3 | 7.1 | 17.3 | 18.2 | 36.8 | 1.6 | 25.5 | 21.2 | 4.9 | 20.2 | 21.2 | 1.5 | 23.7 | -24.4 | 1.4 | 3.5 | 11.8 | 137 to 139 | 7.82 | 2.86 | –
